These results are taken from US4201769A, “Antibiotic substances No. 17927A1 and No. 17927A2 and process for producing the same” (Sankyo Company Limited, priority 1977, dated 1980).

Like-named read-outs stand apart in the source and are kept apart here.

Assay type in all cases: cell-based
In one experiment the test system is Escherichia coli 640. Briefly: Synergistic action with Ampicillin (MIC). As for the experimental part: (§1) (13) Synergistic action: Synergistic action of the substance No. 17927A2 having 0.23 μg/ml of I50 (50% Inhibitory concentration) against β-lactamase produced from Proteus morganii with Cephaloridine or Ampicillin are summarized in Tables 6 and 7.
The subject of a further experiment is Escherichia coli 718. Put plainly: Synergistic action with Ampicillin (MIC). Here is the method:
as §1

In a further experiment the test system is Proteus rettgeri 1603. Put plainly: Synergistic action with Ampicillin or Cephaloridine (MIC). Here is the method: as §1
(§2) (13) Synergistic action: Synergistic action of the substance No. 17927A1 having 0.27 μg/ml of I50 (50% Inhibitory concentration) against β-lactamase produced from Proteus morganii with Cephaloridine are summarized in Table 10.

In experiment [1] the test system is Klebsiella pneumoniae 847. Put plainly: Synergistic action with Cephaloridine (MIC). Here is the method: as §1, §2
For the next experiment, the system named is Proteus inconstans 1708. Put plainly: Synergistic action with Cephaloridine (MIC). As for the experimental part:
as §1, §2

The next experiment has as its system Escherichia coli 609. Put plainly: Synergistic action with Cephaloridine (MIC). As for the experimental part:
as §2

The subject of another experiment is Proteus mirabilis 1332. Briefly: Synergistic action with Cephaloridine (MIC). As for the experimental part: as §2
A further experiment relates to Proteus morganii 1510. Briefly: Synergistic action with Cephaloridine (MIC). Here is the method: as §2
The mark [2] stands for this setting: No. 17927A2 coexisted 0.1 μg/ml.
[3] abbreviates: No. 17927A1 coexisted 0.1 μg/ml.
Where [4] appears, read: No. 17927A1 coexisted 0.4 μg/ml.

One may read the MIC as the least concentration at which growth counts as inhibited. Consider `CC1(C)S[C@@H]2[C@H](NC(=O)[C@H](N)c3ccccc3)C(=O)N2[C@H]1C(=O)O` [Ampicillin], for which the MIC in the experiment on Escherichia coli 640 (Escherichia coli, 640, read-out: MIC, Ampicillin alone) was 25 µg/mL; with Escherichia coli 718 (Escherichia coli, 718, read-out: MIC, Ampicillin alone), 800 µg/mL; in the experiment with Proteus rettgeri 1603 (Providencia rettgeri, 1603, read-out: MIC, Ampicillin alone) it was 100 µg/mL. The “MIC, Ampicillin with No. 17927A2 coexisted” value in the experiment with Escherichia coli 640 (setting [2]) was found to be 1.56 µg/mL; in the experiment on Escherichia coli 718 (setting [2]) it was 25 µg/mL; with Proteus rettgeri 1603 (setting [2]), 50 µg/mL.
In the case of `O=C(Cc1cccs1)N[C@@H]1C(=O)N2C(C(=O)[O-])=C(C[n+]3ccccc3)CS[C@H]12` [Cephaloridine], the MIC was 100 µg/mL in experiment [1] (Klebsiella pneumoniae, 847, read-out: MIC, Cephaloridine alone); 1600 µg/mL in the experiment with Proteus inconstans 1708 (Providencia alcalifaciens, 1708, read-out: MIC, Cephaloridine alone); 1600 µg/mL with Proteus rettgeri 1603 (Providencia rettgeri, 1603, read-out: MIC, Cephaloridine alone); 100 µg/mL in the experiment on Escherichia coli 609 (Escherichia coli, 609, read-out: MIC, Cephaloridine alone); 100 µg/mL in the experiment with Proteus mirabilis 1332 (Proteus mirabilis, 1332, read-out: MIC, Cephaloridine alone); 1600 µg/mL in the experiment with Proteus morganii 1510 (Morganella morganii, 1510, read-out: MIC, Cephaloridine alone). Also, the “MIC, Cephaloridine with No. 17927A1 coexisted” value in experiment [1] (setting [3]) was 12.5 µg/mL; in experiment [1] (setting [4]), 12.5 µg/mL; with Proteus inconstans 1708 (setting [3]), 6.25 µg/mL; in the experiment on Proteus inconstans 1708 (setting [4]) it was 3.13 µg/mL; in the experiment with Proteus rettgeri 1603 (setting [3]), 50 µg/mL; in the experiment with Proteus rettgeri 1603 (setting [4]), 25 µg/mL. Also, the “MIC, Cephaloridine with No. 17927A1 coexisted” value in the experiment with Escherichia coli 609 (setting [3]) stood at 100 µg/mL; in the experiment on Escherichia coli 609 (setting [4]) it was 50 µg/mL; in the experiment on Proteus mirabilis 1332 (setting [3]), 50 µg/mL; with Proteus mirabilis 1332 (setting [4]), 50 µg/mL; in the experiment on Proteus morganii 1510 (setting [3]) it was 50 µg/mL; in the experiment on Proteus morganii 1510 (setting [4]) it was 50 µg/mL. Further, the “MIC, Cephaloridine with No. 17927A2 coexisted” value (in experiment [1] (setting [2]); in the experiment with Proteus inconstans 1708 (setting [2])) was 12.5 µg/mL throughout.
